From publication PMC12730667, “A Scorpion Peptide Exerts Selective Anti-Leukemia Effects Through Disrupting Cell Membranes and Triggering Bax/Bcl-2-Related Apoptosis Pathway” (Biomolecules, 2025)
Where no end group is shown, it is not given here.

Columns and labels:
red blood cells = assay: Hemolytic activity assay; assay type: cell-based; details: red blood cells in PBS, 37 °C, 1 h, absorbance 450 nm, 0.1% Triton X-100 as positive control, Figure S2B
Method: A total of 500 μL fresh whole blood was collected and diluted with 5 mL PBS and then centrifuged at 1000 rpm for 5 min to remove the plasma. The pellet was washed again by adding PBS to a final volume of approximately 10 mL, followed by centrifuging at 1000 rpm for 5 min. This washing step was repeated until the supernatant became clear. The resulting red blood cell pellet was then resuspended in 10 mL PBS. For the hemolysis assay, 200 μL suspension was mixed with 200 μL Lpep3 with different concentrations (100, 50, 25, 12.5, 6.25, 3.125, 1.57, 0.78, 0.39 μM). The positive control consisted of 200 μL suspension mixed with 200 μL 0.1% Triton X-100, while the negative control contained 200 μL RBC suspension and 200 μL PBS. All mixtures were incubated at 37 °C for 1 h, followed by centrifugation at 12,000 rpm for 5 min. The supernatant was collected and measured at 450 nm. The hemolysis rate was calculated using the following equation: Hemolysis rate%=ODSample−ODnegative/ODPositive−ODnagative×100%

HCT116 cells = assay type: cell-based, human; details: 24 h
Method: (§1) All cell lines, including CT26.WT, LLC, MV-4-11, HCT-116, ID8, Jurkat, L1210, OVCAR-8, YAC-1, MDA-MB-231, MEL, Mia PaCa-2, B16-F10, HepG2, A549 Hela, 4T1, Panco2, K562, RAJI, A375, HL-60, H1975, HaCat, HUVEC, and HDF, were obtained from the National Collection of Authenticated Cell Cultures (Shanghai, China) or saved in the lab and cultured in RPMI-1640 or DMEM or IMEM medium supplemented with 10% (v/v) fetal bovine serum (FBS), 100 units/mL penicillin, 100 µg/mL streptomycin, and 0.05% (v/v) L-glutamine serum in a humidified atmosphere of 5% CO2 at 37 °C.
(§2) To determine the effects of Lpep3 on cell cytotoxicity, the Cell Counting Kit-8 (CCK8) assay was performed according to the manufacturer’s protocol. Cells were seeded at 8 × 10^3 cells per well and treated with Lpep3 at different concentrations (100, 50, 25, 12.5, 6.25, 3.125, 1.56, 0.78, 0.39 μM) for 24 h. Subsequently, 10 μL of CCK8 reagent (Abbkine, Wuhan, China) was added to each well and incubated for 1–4 h at 37 °C. The absorbance at 450 nm was measured using a microplate reader (BioTek, Winooski, VT, USA). The half-maximal inhibitory concentration (IC50) was defined as the peptide concentration required to reduce cell viability by 50% relative to the untreated control. IC50 values were calculated using non-linear regression analysis of the dose–response curves in GraphPad Prism (8.0.2). The percentage of cellular viability was calculated using the following equation: Cell Viability %=ODSample−ODBlank/ODControl−ODBlank×100%

Hep G2 cells = assay type: cell-based, human; details: 24 h
Method: as §1, §2

Mia PaCa-2 cells = assay type: cell-based, human; details: 24 h
Method: as §1, §2

A549 cells = assay type: cell-based, human; details: 24 h
Method: as §1, §2

MV-4-11 cells = assay type: cell-based, human
Method: as §1, §2

Jurkat cells = assay type: cell-based, human; details: 24 h
Method: as §1, §2

K562 cells = assay type: cell-based, human
Method: as §1, §2

MDA-MB-231 cells = assay type: cell-based, human; details: 24 h
Method: as §1, §2

HeLa cells = assay type: cell-based, human; details: 24 h
Method: as §1, §2

OVCAR-8 cells = assay type: cell-based, human; details: 24 h
Method: as §1, §2

A375 cells = assay type: cell-based, human; details: 24 h
Method: as §1, §2

HL-60 cells = assay type: cell-based, human; details: 24 h
Method: as §1, §2

solid tumor cell lines = assay: CCK-8 IC50, solid cancer cell lines as a group; assay type: cell-based; details: range over hepatocellular, pancreatic, breast, cervical, lung, colorectal, ovarian and melanoma cell lines, CCK-8, 24 h; read-out: IC50 values in solid cancers
Method: as §2
Based on the above results, subsequent studies will focus on determining the IC50 of Lpep3 to accurately quantify the intensity of its anticancer activity. […] The ovarian cell was the most sensitive in solid tumor cell lines.

HaCaT cells = assay type: cell-based; details: 24 h
Method: as §1, §2

4T1 cells = assay type: cell-based; details: 24 h
Method: as §1, §2

H1975 cells = assay type: cell-based; details: 24 h
Method: as §1, §2

B16-F10 cells = assay type: cell-based; details: 24 h
Method: as §1, §2

LLC cells = assay type: cell-based; details: 24 h
Method: as §1, §2

Panc02 cells = assay type: cell-based; details: 24 h
Method: as §1, §2

HUVEC cells = assay type: cell-based; details: 24 h
Method: as §1, §2

ID8 cells = assay type: cell-based; details: 24 h
Method: as §1, §2

HDF cells = assay type: cell-based; details: 24 h
Method: as §1, §2

CT26.WT cells = assay type: cell-based; details: 24 h
Method: as §1, §2

Primary PBMC = assay type: cell-based; details: 24 h
Method: Briefly, fresh anticoagulated whole blood was collected and diluted with 1× PBS buffer at a ratio of 1:1, followed by gentle mixing. Then, an appropriate volume of mononuclear cell separation medium was added to a sterile centrifuge tube, and the diluted blood sample was carefully layered onto the surface of the separation medium (separation medium–diluted whole blood = 1:2) while maintaining a clear interface between the two layers. Then, it was centrifuged at 450× g for 20–30 min at room temperature. After centrifugation, the plasma layer was aspirated and discarded, then the PBMC layer was carefully collected (i.e., the buffy coat) and transferred to a 15 mL centrifuge tube. […] The isolated PBMCs were then ready for subsequent experiments.
To determine the effects of Lpep3 on cell cytotoxicity, the Cell Counting Kit-8 (CCK8) assay was performed according to the manufacturer’s protocol. […] The absorbance at 450 nm was measured using a microplate reader (BioTek, Winooski, VT, USA). […] IC50 values were calculated using non-linear regression analysis of the dose–response curves in GraphPad Prism (8.0.2). The percentage of cellular viability was calculated using the following equation: Cell Viability %=ODSample−ODBlank/ODControl−ODBlank×100%

[1] = In vivo biosafety in tumor-bearing nude mice (body weight, blood, liver/kidney function, H&E); set-up: species or system mouse; details: 10 mg/kg i.p. every other day, 6 injections
Excerpt: Healthy male BALB/c nu/nu nude mice (aged 4–5 weeks) were purchased from Slac & Jingda Laboratory Animal Co., Ltd. (Changsha, China). All animal experiments were strictly approved by the Institutional Animal Care and Use Committee (IACUC) of Hunan Normal University, and the Guidelines for the Care and Use of Laboratory Animals issued by the National Institutes of Health (NIH, Bethesda, MD, USA) were strictly adhered to throughout the experiment. MV-4-11 cells (5 × 10^6 cells resuspended in a 1:1 mixture of Matrigel and PBS) were subcutaneously (s.c.) injected into the right axillary fossa of each mouse. When the tumor volume reached 100–150 mm^3, all mice were randomly divided into two groups (n = 4). Mice in the experimental group were intraperitoneally injected with 50 μL of Lpep3 (10 mg/kg), while those in the control group received an intraperitoneal injection of an equal volume of sterile PBS. The day of the first injection was defined as Day 0. Injections were administered every other day, with a total of 6 administrations. Additionally, the tumor volume and body weight of mice in each group were monitored at regular intervals. After the experiment, major organs were dissected, fixed in 4% paraformaldehyde (PFA), and subjected to histological examination. Major organs were further stained with hematoxylin and eosin (H&E) for pathological analysis.
After euthanasia, whole blood was collected and allowed to stand at 4 °C for 1 h and then centrifuged at 3000× g for 10 min to obtain serum. Serum biochemical and liver/kidney function parameters, including RBC, NEU, HGB, ALT, AST, BUN, and creatinine, were analyzed using an automated chemistry analyzer (TBA-40FR, Tochigi, Japan) according to the manufacturer’s instructions.

MEL cells = details: 24 h
Method: as §1, §2

L1210 cells = details: 24 h
Method: as §1, §2

YAC-1 cells = details: 24 h
Method: as §1, §2

[2] = test system: 24 distinct cancer cell lines; assay type: cell-based; details: CCK-8, 5, 10 and 20 μM
Method: as §1
as §2, with “Subsequently, 10 μL of CCK8 reagent (Abbkine, Wuhan, China) was added to each well and incubated for 1–4 h at 37 °C.” left out, “The half-maximal inhibitory concentration (IC50) was defined as the peptide concentration required to reduce cell viability by 50% relative to the untreated control.” left out
To comprehensively characterize the anticancer activity of peptides Lpep1–Lpep7, their cytotoxic effects across 24 distinct cancer cell lines were assessed using CCK-8 assays. […]

non-cancer cells = assay type: cell-based; details: 24 h
Method: as §2
The lowest values approached 0.6 μM in MV-4-11. […] Based on this discrepancy, concentrations of 0.5 μM and 1 μM were selected for subsequent experiments.

Raji cells = assay type: cell-based, human; details: Raji, 5, 10 and 20 μM, CCK-8
Method: as §1
as §2, with “Cells were seeded at 8 × 10^3 cells per well and treated with Lpep3 at different concentrations (100, 50, 25, 12.5, 6.25, 3.125, 1.56, 0.78, 0.39 μM) for 24 h.” left out

[3] = Solubility of the synthesized peptide in PBS and DMSO; assay type: physicochemical; details: peptide excluded from experimental verification
Excerpt: Based on the anticancer prediction model CNBT-ACPred established by our team previously, there are 276 toxic animal polypeptides whose average prediction score is greater than 0.73. Then, based on the top prediction scores and species diversity, seven candidate peptides were chosen for subsequent experimental validation (Table 2).

Sequence: FFGSLLSLGSKLLPSVFKLFQRKKE [Lpep3]
- concentration at which a 50% hemolysis rate was observed (red blood cells): 12.5 µM
- IC50 (HCT116 cells): 3.2 µM
- IC50 (Hep G2 cells): 6.99 µM
- IC50 (Mia PaCa-2 cells): 5.4 µM
- IC50 (A549 cells): 2.72 µM
- IC50 (MV-4-11 cells; 24 h): 0.6 µM
- cell viability (MV-4-11 cells; 24 h, 5 μM): ~0%
- IC50 (Jurkat cells): 0.554 µM
- cell viability (Jurkat cells; 5 μM): ~0%
- IC50 (K562 cells; 24 h): 0.656 µM
- cell viability (K562 cells; 24 h, 5 μM): ~0%
- IC50 (MDA-MB-231 cells): 2.32 µM
- cell viability (MDA-MB-231 cells; 5 μM): ~0%
- IC50 (HeLa cells): 2.72 µM
- cell viability (HeLa cells; 5 μM): ~0%
- IC50 (OVCAR-8 cells): 1.3 µM
- cell viability (OVCAR-8 cells; 5 μM): ~0%
- IC50 (A375 cells): 2.23 µM
- cell viability (A375 cells; 5 μM): ~0%
- IC50 (HL-60 cells): 1.49 µM
- IC50 (solid tumor cell lines): 1.3 to 11 µM
- IC50 (HaCaT cells): 5.8 µM
- IC50 (4T1 cells): 3.05 µM
- IC50 (H1975 cells): 3.04 µM
- IC50 (B16-F10 cells): 11.8 µM
- IC50 (LLC cells): 2.31 µM
- IC50 (Panc02 cells): 2.87 µM
- IC50 (HUVEC cells): 6.42 µM
- IC50 (ID8 cells): 1.99 µM
- IC50 (HDF cells): 4.52 µM
- IC50 (CT26.WT cells): 2 µM
- IC50 (Primary PBMC): 3.81 µM
- liver and kidney function indices (AST, ALT, UA, CRE) ([1]; n = 4, serum): remained within the normal range
- blood routine indices (RBC, HGB, Neu) ([1]; n = 4, vs PBS): no obvious difference
- body weight ([1]; n = 4, vs PBS): no obvious difference
- H&E staining of liver, spleen and kidney ([1]; vs control group): no obvious damage
- IC50 (MEL cells): 0.563 µM
- IC50 (L1210 cells): 2.05 µM
- IC50 (YAC-1 cells): 0.728 µM
- cytotoxic effects across 24 distinct cancer cell lines [2]: potent, broad-spectrum cytotoxic peptide
- IC50 (non-cancer cells): ~5 µM

Sequence: FVQWFSKFLGRIL [Lpep7, 13-residue candidate peptide, species Rana temporaria]
- cytotoxic activity (MV-4-11 cells; MV-4-11, 5, 10 and 20 μM, CCK-8): moderate activity
- cytotoxic activity (K562 cells; K562, 5, 10 and 20 μM, CCK-8): moderate activity
- cytotoxic activity (Raji cells): moderate activity

Sequence: GLFDIAKKVIGVIGSL [Lpep4, 16-residue candidate peptide, species Ranoidea raniformis]
- solubility in PBS and DMSO [3]: poor solubility
